Consider four molecules from PMC12595484, “Optimizing multifunctional fluorescent ligands for intracellular labeling” (Proceedings of the National Academy of Sciences of the …, 2025).

Each structure is given as a SMILES string. Several values for one entry are separate records, joined by “and”; a condition that tells them apart may be missing. Equal values may be shown once. Read-outs that look alike come from different tables or passages of the source.

Data set [1] deals with OMP25–msGFP–HaloTag fusion protein in HEK293T cells. Kind of data set: Pulse–chase HaloTag labeling efficiency, SDS–PAGE/in-gel fluorescence. It is filed as cell-based. To be noted: 2 h, mean ± SEM. On the procedure:
PBS, 2% (v/v) SDS, 1% (v/v) Triton x-100, 10 mM EDTA, and protease inhibitors (2 mM PMSF, aprotinin, leupeptin, and pepstatin A). Samples were then incubated at 50 °C for 3–4 min after the addition of Laemmli sample buffer (SB; Bio-Rad, 1610747) with β-mercaptoethanol (Bio-Rad, 1610710). For protein detection, 10–20 µL of the sample was subjected to SDS-PAGE, using 10% Tris-Glycine gels (TGX) (Bio-Rad, 5671034) with Tris-Glycine buffer (Bio-Rad, 1610732). […]
Quantification of HaloTag labeling efficiency using in-gel fluorescence. HEK293T cells were cultured, incubated and transfected with pF(UG) hSyn HaloTag-TEV-4×GS-msGFP-mito using lipofectamine LTX reagent as described above. To examine saturation of HaloTag, we screened for fluorescence plateau using 1 μM of JF479-HaloTag ligand,4 JF549-HaloTag ligand (2HTL) and […]
(2HTL) and JF608-HaloTag ligand (3HTL) reached a fluorescence plateau, and they were chosen as saturating counter stains or “chase” dyes for examining the labeling efficiency of biotin-JF-HaloTag ligands (13HTL–16HTL). Next, we developed an in-gel assay to independently quantitate labeling efficiencies of 13HTL–16HTL. We used JF549-HaloTag ligand (2HTL) as chase for evaluating biotin-JF608-HaloTag ligand (14HTL), biotin-JF646-HaloTag ligand (15HTL), and biotin-JF635-HaloTag ligand (16HTL). We used JF608-HaloTag ligand (3HTL) as chase for evaluating biotin-JF549-HaloTag ligand (13HTL). Each experiment consisted of testing the biotin variants 13HTL–16HTL at 100 nM and 1 μM with an incubation time of 2 h and a chase labeling incubation of 1 μM for 0.5 h. The 0.5 h chase labeling period was included with the 2 h total incubation. Each experiment consisted of the following conditions: untransfected cells; (A) transduced, but no dye; (B) non-biotinylated variant of primary label at 1 μM for 0.5 h; (C) the nonbiotinylated version of the chase JF dye at 1 μM for 0.5 h; (D) 100 nM of the nonbiotinylated version of the primary label for 2 h; (E) 100 nM of the biotinylated version of primary label for 2 h; (F) 1 μM of the nonbiotinylated version of the primary label for 2 h; (G) 1 μM of the biotinylated version of primary label for 2 h; and (H) 1 μM of the non-biotinylated version of the chase JF dye at 1 μM for 2 h. This last condition H was the same as condition C but with a longer incubation (2 h vs. 0.5 h) to allow independent verification of the chase saturation using 0.5 h incubation. Samples D–G were incubated with a nonbiotinylated chase dye at 1 μM for 0.5 h. Cells were washed and protein lysates were harvested using Bio-Rad SDS-PAGE products as described above. Specifically, cells were lysed using protein lysis buffer as described above, and adding XT Sample Buffer (Bio-Rad, 1610791) and XT Reducing Agent (Bio-Rad, 1610792). Samples were heated at 72 °C for 5 min. Samples were then loaded onto a 4–12% Criterion XT Bis-Tris gel (Bio-Rad, 3450124) and ran at 150 V for approximately 1 h. Gels were then imaged on a Chemidoc MP imager (Bio-Rad) using orange, red, and far-red filters. Bands representing HaloTag ligand were quantified by densitometry using […]
labeling efficiency calculations, bands representing saturating chase dye fluorescence (e.g., JF549) were compared to saturating primary dye fluorescence allowing estimation of the amount of […]
Where F is the fraction of HaloTag protein labeled, Ce is the experimental chase dye fluorescence signal after incubation with pulse biotin-JF-HaloTag ligand, and Cs is the saturating chase dye fluorescence without incubation with a pulse ligand.
Neuro2a cell culture, labeling, lattice light sheet microscopy (LLSM), and confocal microscopy. Neuro2a cells (ATCC, CCL-131) were cultured in Eagle's minimum essential medium (MEM, phenol red-free; Life Technologies) supplemented with 10% (v/v) fetal bovine serum (FBS), and maintained at 37 °C in a humidified 5% (v/v) CO2 environment. Cells were transiently transfected using nucleofection (Lonza) with plasmids constitutively expressing

Data set [2] deals with sfGFP–BRD4 in Neuro2a cells expressing coilin–HaloTag. Put plainly: BRD4 translocation to coilin–HaloTag, LLSM. The class given is cell-based. To be noted: 25 μM (S)-JQ1 with 20 nM 19HTL, coilin–HaloTag, confocal. On the procedure:
The ability of JQ1 ligands to enter living cells and recruit BRD4 to defined genomic regions was evaluated using lattice light sheet fluorescence microscopy (LLSM). Neuro2a cells were transiently transfected with plasmids encoding three fusion proteins: i) HaloTag protein fused to coilin, […]; ii) superfolder GFP–BRD4; and iii) histone H2B–mCherry as a nuclear marker. The Cajal body component coilin localizes in distinct puncta in the nucleus ([62]) compared to the diffuse euchromatic distribution of BRD4. […]
Neuro2a cell culture, labeling, lattice light sheet microscopy (LLSM), and confocal microscopy. […]
Full 3D volumes at multiple stage positions were collected at 2 minute intervals for 90 minutes total. […] The recruitment of histone H3.3 was assessed by imaging after 24 h incubation with 19HTL. […]
LLSM imaging processing. Raw image data volumes were deskewed and rotated, then empirically deconvolved using a Richardson-Lucy maximum likelihood algorithm using experimentally measured PSFs for each color channel for 30 iterations. […] These segmentation masks were then used to isolate each nucleus for further quantitative analyses. […] The amount of BRD4 signal was then assessed in- versus outside HaloTag labeled domains throughout the 90-min time-lapse acquisition. […]

The nature of data set [3]: Determination of logD7.4 (miniaturized shake flask, octanol–PBS). It is filed as physicochemical. To be noted: pH 7.4. Here is the method: Detailed descriptions of the materials and methods are provided in the supporting information. Multifunctional rhodamine–HaloTag ligands (13HTL–16HTL and 18HTL–20HTL) were synthesized using palladium-catalyzed cross-coupling reactions to install 3-carboxyazetidine moieties onto rhodamine scaffolds, followed by amide bond formation with biotin–PEG2–NH2, (S)-JQ1–PEG2–NH2, or (R)-JQ1–PEG2–NH2. Spectroscopic properties (λabs, λem, ε, and Φf) were determined in 10 mM HEPES, pH 7.3. The lactone–zwitterion equilibrium constants (KL–Z) were measured in 1:1 (v/v) dioxane–water mixtures. Octanol–water distribution coefficients (logD7.4) were determined by miniaturized shake-flask partitioning experiments using PBS (pH 7.4) and 1-octanol. Cell culture experiments employed HEK293T, U2OS, and Neuro2a cells transfected with HaloTag fusion constructs and labeled with ligands (100 nM to 1 μM, 0.5 to 2 h at 37 °C), followed by fluorescence microscopy using confocal or lattice light-sheet microscopy. Affinity purification studies utilized streptavidin magnetic beads to capture biotin-labeled HaloTag conjugates, with analysis by SDS-PAGE and in-gel fluorescence detection. […]
Reported values are averages of at least two measurements.
Determination of logD7.4. The log of distribution coefficients at pH 7.4 was determined in octanol–phosphate-buffered saline (PBS) using a miniaturized shake flask setup described previously.6, 7 Briefly, 150 mL each of octanol and PBS pH 7.4 were stirred vigorously for 12–16 h. The layers were allowed to stand for at least 24 h for phase separation. The separated layers were collected and served as PBS saturated with octanol (PBS*) and octanol saturated with PBS (octanol*). Stock solutions (1 mM or 5 mM) of ligands were prepared in DMSO and diluted in PBS* to obtain 1 μM or 10 μM (3–5 mL) of the standard (std). This standard was used to prepare appropriate dilutions using octanol*, in triplicate, in 2-mL glass vials. The leftover standard was used to determine the standard concentration (Cstd). The vials were vortexed for 1 min and shaken horizontally at 700 rpm for 2 h. The vials were then shaken upright at 150 rpm for 2 h to allow the phases to separate. The octanol* layer was pipetted out, and the PBS* layer was used for further analyses. The concentrations of ligands in the standard and PBS* (CPBS*) were determined via fluorescence measurements of 200 μL of PBS* or std in 96-well plates on the Cytation 5 Multimode Plate Reader (BioTek). For Si-rhodamine containing ligands, 2–20 μL of […]
trifluoroacetic acid was added to each well of the 96-well plate prior to the fluorescence measurements. Reported values are averages of at least two measurements. The logD7.4 was obtained as described previously using equation 2: logD = log *’(" × r − 1. +)*+∗ / (2) […]
where Cstd is the standard concentration in PBS, CPBS* is the concentration in PBS after partitioning, r is the dilution factor of the standard solution, VPBS* is the volume of PBS used in the partitioning, and Voctanol* is the volume of octanol used in the partitioning.
Plasmid construction for mitochondria imaging and affinity purification. HaloTag, amplified from the pHTC HaloTag CMV-neo Vector (Promega; G7711) and monomeric-superfolder green fluorescent protein (msGFP; lab stock), was fused to the mitochondrial targeting signal from OMP25,8 interspacing flexible GS(GSS)4 linkers between each domain by PCR Splicing by Overlap Extension (SOE). This construct was subcloned into hSynapsin promoter bearing a copy of FUGW.9 FUGW was a gift from David Baltimore (Addgene plasmid # 14883; RRID:
Addgene_14883).10 This construct was designated as pF(UG) hSyn HaloTag-TEV-4×GS-msGFP- […]
HEK293T cell culture. HEK293T cells (ATCC) were passaged before 80% confluency by trypsinization (Corning; 25-053-CI) and trituration. The cell suspension was then plated on glass coverslips (Warner instruments; 64-0734, CS-18R17) coated with poly-D-lysine (Thermofisher; […]

The conditions of data set [4]: 1:1 (v/v) dioxane–water, cited from earlier work.
On the set-up of data set [5]: method as in PMID 28869757, PMID 25599551. The conditions noted are these: 10 mM HEPES, pH 7.3; ref 27 and 50; cited from earlier work.

With `O=C(CCCC[C@@H]1SC[C@@H]2NC(=O)N[C@@H]21)NCCOCCOCCCCCCCl` [17HTL, biotin–HaloTag ligand, reference compound], the labeling efficiency amounted to 32.0 ± 9.3% in data set [1] (100 nM pulse) and 92.1 ± 0.4% in data set [1] (1 µM pulse).

For `Cc1sc2c(c1C)C(c1ccc(Cl)cc1)=N[C@@H](CC(=O)OC(C)(C)C)c1nnc(C)n1-2` [JQ1, (S)-JQ1, reference compound], the “effect of excess free JQ1 on BRD4 recruitment by 19HTL” value in data set [2] was “inhibited BRD4 recruitment”.

As to `C[Si]1(C)c2cc(N3CCC3)ccc2C2(OC(=O)c3ccccc32)c2ccc(N3CCC3)cc21` [compound 5, Janelia Fluor 646], the logD (commonly the decadic logarithm of the distribution of all forms, ionised or not, between an organic phase and buffer at a given pH) in data set [3] worked out at 3.98. Further, the “KL–Z” value in data set [4] (parent dyes, ref 27 and 50) is reported as 0.0014. In data set [5], the Φf is on record as 0.54, the ε was 5,000 M^−1cm^−1, the λabs is on record as 646 nm and the λem is 664 nm.

In data set [3], `C[Si]1(C)c2cc(N3CC(F)C3)ccc2C2(OC(=O)c3ccccc32)c2ccc(N3CC(F)C3)cc21` [compound 6, JF635] came in with a pH-dependent lipophilicity (logD) of 4.1. Also, in data set [4], the “KL–Z” value was “≈ 0.0001 and 0.0001”. In data set [5], the Φf is 0.66, the ε is listed as ~ 400 M^−1cm^−1, the λabs is on record as 635 nm and the λem is 652 nm.
